In patent US20090165150A1, “DIRECTED COMPLEMENTATION WITH REMOVABLE GENE OF INTEREST” (priority 2007, published 2009):

What was measured:
DC tumors = assay: Xenograft of DC tumor cells (pL-Her2^YVMA complemented) in NCR nude mice maintained off doxycycline; format: in vivo, mouse; details: 5 mice bearing DC tumors, Tamoxifen IP for 8 consecutive days, observed up to a month, untreated group had tumors within 10 days
Protocol: Minced DC tumor was thawed at 37° C. and cells were dissociated by passing through cell strainers (100 μm filters, BD Falcon Cat. No. 352360). The cells were collected and centrifuged at 1000 rpm for 5 minutes, washed twice with PBS and counted using hemocytometer and resuspended in one part PBS (Gibco Cat. No. 24020-117) to one part Matrigel (BD Cat. No. 3542334) for injections.
(§1) Tamoxifen treatment: To activate CreER^T2 and induce Cre mediated recombination (i.e., excision) between loxP sites, animals were treated with 0.1 ml tamoxifen (10 mg/ml in corn oil) through intraperitoneal (IP) injection for […].
(§2) About 0.1 million DC tumor cells were injected subcutaneously into 10 NCR nude mice on the right flank. These mice were maintained off doxycycline. Similarly 10 NCR nude mice were inoculated with archived BHc tumor and maintained on doxycycline. These mice were divided into 4 groups.
The fourth group contained of 5 mice bearing DC tumors. They were treated with Tamoxifen for 8 consecutive days.

BHc tumors = assay: Xenograft of archived BHc tumor in NCR nude mice maintained on doxycycline; format: in vivo, mouse; details: 5 mice bearing BHc tumors, Tamoxifen IP for 8 consecutive days
Protocol: as §1, §2
The second group contained of 5 mice bearing BHc tumors. They were treated with Tamoxifen for 8 consecutive days.

## CC/C(=C(\c1ccccc1)c1ccc(OCCN(C)C)cc1)c1ccccc1 [Tamoxifen, tamoxifen]
DC tumors
  tumor formation: Tumors were never observed
BHc tumors
  tumor growth compared with untreated group: grew slower than group 1
BHc tumors; all 5 mice, untreated group within 10 days
  time until tumors were observed: ≤ 12 days
